Test results: US20230399312A1, “SUBSTITUTED PYRIMIDINES AND METHODS OF USE” (THERAVANCE BIOPHARMA R&D IP, LLC, priority 2020, published 2023)

Key:
[1] = tested on: TGF-β-stimulated SMAD3 phosphorylation in BEAS-2B cells; test: Cellular ALK5 potency assay, inhibition of TGF-β stimulated pSMAD3 formation in BEAS-2B cells; type: cell-based; conditions: Homo sapiens, pSMAD3, TGF-β 10 ng/mL, read-out: BEAS2B pIC50 (converted)
In short: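 Reported as pIC50, potency reflects dose-dependent loss of AlphaLISA pSMAD3 signal versus TGF-β-stimulated, compound-free BEAS-2B cells. Compound was applied for 1 h in BSA-containing HBSS buffer before a 30-min challenge with TGF-β at 10 ng/mL final.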

[2] = target: T1, recombinant human ALK5 (TGF-βR1) protein (Homo sapiens, UniProt P36897); test: Biochemical ALK5 (TGF-βR1) assay to measure pKi (LANCE Ultra ULight kinase assay); conditions: apparent pKi, converted from pIC50 by Cheng-Prusoff
T1 construct: purchased Life Technologies PR9075A
T1 sequence (P36897 34-503): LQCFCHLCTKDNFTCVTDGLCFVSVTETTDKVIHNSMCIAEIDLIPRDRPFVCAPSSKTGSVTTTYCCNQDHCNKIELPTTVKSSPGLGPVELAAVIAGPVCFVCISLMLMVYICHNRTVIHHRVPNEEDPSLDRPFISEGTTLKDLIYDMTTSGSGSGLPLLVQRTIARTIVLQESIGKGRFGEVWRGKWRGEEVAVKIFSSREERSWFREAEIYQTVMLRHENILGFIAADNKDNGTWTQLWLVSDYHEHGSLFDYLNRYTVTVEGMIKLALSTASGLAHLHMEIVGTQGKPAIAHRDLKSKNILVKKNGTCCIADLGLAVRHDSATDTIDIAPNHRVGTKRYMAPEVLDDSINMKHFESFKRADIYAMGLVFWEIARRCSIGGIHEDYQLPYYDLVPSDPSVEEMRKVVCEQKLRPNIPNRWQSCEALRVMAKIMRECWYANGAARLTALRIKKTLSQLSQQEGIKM
In short: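 Dose-response series of each compound were preincubated with the kinase for 60 minutes at room temperature. Phosphorylation proceeded for 60 minutes at 37 °C after ATP addition, was quenched with EDTA, and was detected with a europium anti-phospho-Thr1342 antibody by TR-FRET; pKi was calculated from pIC50.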

Ki [2] | SMILES | IC50 [1]
0.0398 to 0.316 nM | Cc1cccc(-c2nccc(Nc3ccnc(Nc4ccc(N5CCC(C(=O)OC6CNC6)CC5)cc4)n3)n2)n1 [Compound 220, azetidin-3-yl 1-[4-[[4-[[2-(6-methyl-2-pyridyl)pyrimidin-4-yl]amino]pyrimidin-2-yl]amino]phenyl]piperidine-4-carboxylate] | 25.1 to 158 nM
0.0398 to 0.316 nM | Cc1cccc(-c2nccc(Nc3ccnc(Nc4ccc(N5CCC(N6CCN(C)CC6)CC5)cc4)n3)n2)n1 [Compound 4, N2-[4-[4-(4-methylpiperazin-1-yl)-1-piperidyl]phenyl]-N4-[2-(6-methyl-2-pyridyl)pyrimidin-4-yl]pyrimidine-2,4-diamine] | 25.1 to 158 nM
0.0398 to 0.316 nM | Cc1cccc(-c2nc(C)cc(Nc3ccnc(Nc4ccc(N5CCN(C)CC5)cc4)n3)n2)n1 [Compound 222, N4-[6-methyl-2-(6-methyl-2-pyridyl)pyrimidin-4-yl]-N2-[4-(4-methylpiperazin-1-yl)phenyl]pyrimidine-2,4-diamine] | 25.1 to 158 nM
0.398 to 3.16 nM | Cc1cccc(-c2nccc(Nc3ccnc(Nc4ccnc(C(=O)OCC5CNC5)c4)n3)n2)n1 [Compound 616, azetidin-3-ylmethyl 4-[[4-[[2-(6-methyl-2-pyridyl)pyrimidin-4-yl]amino]pyrimidin-2-yl]amino]pyridine-2-carboxylate] | 25.1 to 158 nM
0.0398 to 0.316 nM | Cc1cccc(-c2nccc(Nc3ccnc(Nc4ccc(N5CCC(N(C)Cc6ccccc6)CC5)cc4)n3)n2)n1 [Compound 432, N2-[4-[4-[benzyl(methyl)amino]-1-piperidyl]phenyl]-N4-[2-(6-methyl-2-pyridyl)pyrimidin-4-yl]pyrimidine-2,4-diamine] | 25.1 to 158 nM
0.0398 to 0.316 nM | Cc1cccc(-c2nccc(Nc3ccnc(Nc4ccc(Cl)c(CO)c4)n3)n2)n1 [Compound 295, [2-chloro-5-[[4-[[2-(6-methyl-2-pyridyl)pyrimidin-4-yl]amino]pyrimidin-2-yl]amino]phenyl]methanol] | 25.1 to 158 nM
0.398 to 3.16 nM | Cc1cccc(-c2nccc(Nc3ccnc(Nc4cncc(C(=O)OC[C@H]5CCCCN5)c4)n3)n2)n1 [Compound 641, [(2R)-2-piperidyl]methyl 5-[[4-[[2-(6-methyl-2-pyridyl)pyrimidin-4-yl]amino]pyrimidin-2-yl]amino]pyridine-3-carboxylate] | 25.1 to 158 nM
0.0398 to 0.316 nM | COc1cc(Nc2nccc(Nc3ccnc(-c4cccc(C)n4)n3)n2)ccc1N1CCOCC1 [Compound 79, N2-(3-methoxy-4-morpholino-phenyl)-N4-[2-(6-methyl-2-pyridyl)pyrimidin-4-yl]pyrimidine-2,4-diamine] | 25.1 to 158 nM
0.0398 to 0.316 nM | Cc1cccc(-c2nccc(Nc3ccnc(Nc4cnn(C5CCNC5)c4)n3)n2)n1 (stereo not drawn) [Compound 245, N4-[2-(6-methyl-2-pyridyl)pyrimidin-4-yl]-N2-(1-pyrrolidin-3-ylpyrazol-4-yl)pyrimidine-2,4-diamine] | 200 to 1260 nM
0.398 to 3.16 nM | Cc1cccc(-c2nccc(Nc3ccnc(Nc4cncc(C(=O)OC[C@H]5CCCN5)c4)n3)n2)n1 [Compound 618, [(2R)-pyrrolidin-2-yl]methyl 5-[[4-[[2-(6-methyl-2-pyridyl)pyrimidin-4-yl]amino]pyrimidin-2-yl]amino]pyridine-3-carboxylate] | 25.1 to 158 nM
0.0398 to 0.316 nM | Cc1cccc(-c2nccc(Nc3ccnc(Nc4csc(C(=O)N5CCN[C@@H](CO)C5)c4)n3)n2)n1 [Compound 536, [(3R)-3-(hydroxymethyl)piperazin-1-yl]-[4-[[4-[[2-(6-methyl-2-pyridyl)pyrimidin-4-yl]amino]pyrimidin-2-yl]amino]-2-thienyl]methanone] | 25.1 to 158 nM
0.0398 to 0.316 nM | Cc1cccc(-c2nccc(Nc3ccnc(Nc4cccc(NC(=O)C5(O)CNC5)c4)n3)n2)n1 [Compound 299, 3-hydroxy-N-[3-[[4-[[2-(6-methyl-2-pyridyl)pyrimidin-4-yl]amino]pyrimidin-2-yl]amino]phenyl]azetidine-3-carboxamide] | 25.1 to 158 nM
